Data published in PubChem BioAssay (NCI).
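A five-concentration, 48-hour dose response in 96-well plates underlies each endpoint, interpolated linearly between surrounding concentrations. The concentration for full growth arrest is given as TGI.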

Assays:
Assay in all cases: DTP human tumour cell line panel, 48 h
A549 NSCLC = test system: A549 NSCLC
RPMI-8226 leukemia = test system: RPMI-8226 leukemia
HOP-62 NSCLC = test system: HOP-62 NSCLC
SK-MEL-5 melanoma = test system: SK-MEL-5 melanoma
OVCAR-8 ovarian = test system: OVCAR-8 ovarian
TK-10 renal = test system: TK-10 renal
DMS 114 small cell lung = test system: DMS 114 small cell lung
SK-OV-3 ovarian = test system: SK-OV-3 ovarian
SF-539 CNS = test system: SF-539 CNS
XF 498 CNS = test system: XF 498 CNS
SN12C renal = test system: SN12C renal
HT29 colon = test system: HT29 colon
DMS 273 small cell lung = test system: DMS 273 small cell lung
LOX IMVI melanoma = test system: LOX IMVI melanoma
SW-620 colon = test system: SW-620 colon
NCI-H460 lung = test system: NCI-H460 lung
OVCAR-4 ovarian = test system: OVCAR-4 ovarian
M14 melanoma = test system: M14 melanoma
UACC-257 melanoma = test system: UACC-257 melanoma
KM20L2 colon = test system: KM20L2 colon
SNB-78 CNS = test system: SNB-78 CNS
CCRF-CEM leukemia = test system: CCRF-CEM leukemia
HL-60(TB) leukemia = test system: HL-60(TB) leukemia
SF-268 CNS = test system: SF-268 CNS
RXF 393 renal = test system: RXF 393 renal
COLO 205 colon = test system: COLO 205 colon
IGROV1 ovarian = test system: IGROV1 ovarian
HCC-2998 colon = test system: HCC-2998 colon
UACC-62 melanoma = test system: UACC-62 melanoma
HCT-15 colon = test system: HCT-15 colon
HOP-18 NSCLC = test system: HOP-18 NSCLC
786-0 renal = test system: 786-0 renal
OVCAR-5 ovarian = test system: OVCAR-5 ovarian
MALME-3M melanoma = test system: MALME-3M melanoma
HCT-116 colon = test system: HCT-116 colon
RXF-631 renal = test system: RXF-631 renal
M19-MEL melanoma = test system: M19-MEL melanoma
LXFL 529 NSCLC = test system: LXFL 529 NSCLC
UO-31 renal = test system: UO-31 renal
SK-MEL-28 melanoma = test system: SK-MEL-28 melanoma
SR leukemia = test system: SR leukemia
SNB-19 CNS = test system: SNB-19 CNS
KM12 colon = test system: KM12 colon
SK-MEL-2 melanoma = test system: SK-MEL-2 melanoma
MOLT-4 leukemia = test system: MOLT-4 leukemia
A498 renal = test system: A498 renal
HOP-92 NSCLC = test system: HOP-92 NSCLC
SF-295 CNS = test system: SF-295 CNS
DLD-1 colon = test system: DLD-1 colon
EKVX NSCLC = test system: EKVX NSCLC
ACHN renal = test system: ACHN renal
K-562 leukemia = test system: K-562 leukemia
SNB-75 CNS = test system: SNB-75 CNS
NCI-H23 lung = test system: NCI-H23 lung
U251 CNS = test system: U251 CNS
OVCAR-3 ovarian = test system: OVCAR-3 ovarian
NCI-H522 lung = test system: NCI-H522 lung
NCI-H226 lung = test system: NCI-H226 lung
CAKI-1 renal = test system: CAKI-1 renal

SMILES: N#CC1(Cc2ccccc2)CCCCN1C(=O)c1ccccc1 (configuration not stated)
- TGI (A549 NSCLC): > 100 µM
- TGI (RPMI-8226 leukemia): > 100 µM
- TGI (HOP-62 NSCLC): > 100 µM
- TGI (SK-MEL-5 melanoma): > 100 µM
- TGI (OVCAR-8 ovarian): > 100 µM
- TGI (TK-10 renal): > 100 µM
- TGI (DMS 114 small cell lung): > 100 µM
- TGI (SK-OV-3 ovarian): > 100 µM
- TGI (SF-539 CNS): > 100 µM
- TGI (XF 498 CNS): > 100 µM
- TGI (SN12C renal): > 100 µM
- TGI (HT29 colon): > 100 µM
- TGI (DMS 273 small cell lung): > 100 µM
- TGI (LOX IMVI melanoma): > 100 µM
- TGI (SW-620 colon): > 100 µM
- TGI (NCI-H460 lung): > 100 µM
- TGI (OVCAR-4 ovarian): > 100 µM
- TGI (M14 melanoma): > 100 µM
- TGI (UACC-257 melanoma): > 100 µM
- TGI (KM20L2 colon): > 100 µM
- TGI (SNB-78 CNS): > 100 µM
- TGI (CCRF-CEM leukemia): > 100 µM
- TGI (HL-60(TB) leukemia): > 100 µM
- TGI (SF-268 CNS): > 100 µM
- TGI (RXF 393 renal): > 100 µM
- TGI (COLO 205 colon): > 100 µM
- TGI (IGROV1 ovarian): > 100 µM
- TGI (HCC-2998 colon): > 100 µM
- TGI (UACC-62 melanoma): > 100 µM
- TGI (HCT-15 colon): > 100 µM
- TGI (HOP-18 NSCLC): > 100 µM
- TGI (786-0 renal): > 100 µM
- TGI (OVCAR-5 ovarian): > 100 µM
- TGI (MALME-3M melanoma): > 100 µM
- TGI (HCT-116 colon): > 100 µM
- TGI (RXF-631 renal): > 100 µM
- TGI (M19-MEL melanoma): > 100 µM
- TGI (LXFL 529 NSCLC): > 100 µM
- TGI (UO-31 renal): > 100 µM
- TGI (SK-MEL-28 melanoma): > 100 µM
- TGI (SR leukemia): > 100 µM
- TGI (SNB-19 CNS): > 100 µM
- TGI (KM12 colon): > 100 µM
- TGI (SK-MEL-2 melanoma): 9.11 µM
- TGI (MOLT-4 leukemia): > 100 µM
- TGI (A498 renal): > 100 µM
- TGI (HOP-92 NSCLC): > 100 µM
- TGI (SF-295 CNS): > 100 µM
- TGI (DLD-1 colon): > 100 µM
- TGI (EKVX NSCLC): > 100 µM
- TGI (ACHN renal): > 100 µM
- TGI (K-562 leukemia): > 100 µM
- TGI (SNB-75 CNS): > 100 µM
- TGI (NCI-H23 lung): > 100 µM
- TGI (U251 CNS): > 100 µM
- TGI (OVCAR-3 ovarian): > 100 µM

SMILES: NC(=Nc1ccc(S(=O)(=O)Nc2cnc3ccccc3n2)cc1)/N=C(/N)Nc1ccc(Br)cc1
- TGI (NCI-H522 lung): > 100 µM
- TGI (A549 NSCLC): > 100 µM
- TGI (RPMI-8226 leukemia): > 100 µM
- TGI (HOP-62 NSCLC): > 100 µM
- TGI (SK-MEL-5 melanoma): > 100 µM
- TGI (OVCAR-8 ovarian): > 100 µM
- TGI (TK-10 renal): > 100 µM
- TGI (DMS 114 small cell lung): > 100 µM
- TGI (SK-OV-3 ovarian): > 100 µM
- TGI (SF-539 CNS): > 100 µM
- TGI (XF 498 CNS): > 100 µM
- TGI (SN12C renal): > 100 µM
- TGI (HT29 colon): > 100 µM
- TGI (DMS 273 small cell lung): > 100 µM
- TGI (LOX IMVI melanoma): > 100 µM
- TGI (SW-620 colon): > 100 µM
- TGI (NCI-H460 lung): > 100 µM
- TGI (NCI-H226 lung): > 100 µM
- TGI (OVCAR-4 ovarian): > 100 µM
- TGI (M14 melanoma): > 100 µM
- TGI (UACC-257 melanoma): > 100 µM
- TGI (KM20L2 colon): > 100 µM
- TGI (SNB-78 CNS): > 100 µM
- TGI (CCRF-CEM leukemia): > 100 µM
- TGI (SF-268 CNS): > 100 µM
- TGI (COLO 205 colon): > 100 µM
- TGI (IGROV1 ovarian): > 100 µM
- TGI (HCC-2998 colon): > 100 µM
- TGI (UACC-62 melanoma): > 100 µM
- TGI (HCT-15 colon): > 100 µM
- TGI (HOP-18 NSCLC): > 100 µM
- TGI (CAKI-1 renal): > 100 µM
- TGI (786-0 renal): > 100 µM
- TGI (OVCAR-5 ovarian): > 100 µM
- TGI (MALME-3M melanoma): > 100 µM
- TGI (RXF-631 renal): > 100 µM
- TGI (M19-MEL melanoma): > 100 µM
- TGI (LXFL 529 NSCLC): > 100 µM
- TGI (UO-31 renal): > 100 µM
- TGI (SK-MEL-28 melanoma): > 100 µM
- TGI (SR leukemia): > 100 µM
- TGI (SNB-19 CNS): > 100 µM
- TGI (KM12 colon): > 100 µM
- TGI (SK-MEL-2 melanoma): > 100 µM
- TGI (MOLT-4 leukemia): > 100 µM
- TGI (A498 renal): > 100 µM
- TGI (HOP-92 NSCLC): > 100 µM
- TGI (SF-295 CNS): > 100 µM
- TGI (DLD-1 colon): > 100 µM
- TGI (EKVX NSCLC): > 100 µM
- TGI (ACHN renal): > 100 µM
- TGI (K-562 leukemia): > 100 µM
- TGI (SNB-75 CNS): > 100 µM
- TGI (NCI-H23 lung): > 100 µM
- TGI (U251 CNS): > 100 µM
- TGI (OVCAR-3 ovarian): > 100 µM
